Measured values reported in US7449453B2, “Compositions of ezetimibe and methods for the treatment of cholesterol-associated benign and malignant tumors” (Karykion Inc., priority 2002, dated 2008).
Entries after “also recorded” stand apart in the source; their conditions may differ.

Columns and labels:
[1] = cited from earlier work; for serum cholesterol levels: mice fed a low cholesterol diet; for elevated serum cholesterol levels: mice, induced by high cholesterol diets
[2] = system: LNCaP cells transfected with HB-EGF; assay: SCID mice transplanted subcutaneously with LNCaP cells transfected with HB-EGF, high cholesterol diet; assay type: in vivo; conditions: for tumor growth and progression vs untreated controls: 10 mg/kg body weight in diet, started 2 weeks after implantation, 6-12 weeks of treatment, intact and castrated animals; for tumor volumes: progression and growth of the implanted tumors vs untreated controls: 30 mg/kg of body weight, started 2 weeks after tumor implantation, after 12 weeks, high cholesterol diet
From the text: Prostate cancer is a leading cause of mortality in males in North America with between 30,000 to 40,000 deaths per year in the United States. While chemotherapy has not been very efficacious in the treatment of prostate cancer, an alternative approach has been to target prostate cancer cell survival pathways, particularly the PI3 kinase/Akt/PTEN signaling axis, which has been identified as an important cell survival mechanism in PCa and other cancers. Recently it has been determined that membrane cholesterol is an important component of a mechanism that transfers survival signals from the cell exterior to the Akt1 serine-threonine kinase. It has also been shown recently that elevated serum cholesterol accelerates the growth, lowers the extent of cellular apotosis, and increases the level of Akt activation in prostate tumors within a murine prostate cancer model. Findings indicate that cholesterol plays a critical role in the ability of prostate cancer cells to resist apoptotic stimuli. The role of cholesterol in prostate cancer cell survival is so critical that drugs that bind cholesterol (polyene macrolides), extract cholesterol from membranes (cyclodextrin) or block cholesterol synthesis (statins) all alter essential membranes (lipid rafts) and reduce their capacity to regulate cell signaling. Cholesterol plays a crucial role in specifically regulating prostate cancer growth and survival. In these studies a unique prostate murine model system is used. This model features the human prostate adenocarcinoma cell line, LNCaP transfected with HB-EGF. LNCAP cells resemble typical prostate tumor cells in their general morphology, production of PSA and PTEN null status. Stable transfection with HB-EGF, a physiologically relevant EGFR ligand that originates in the prostatic stroma, permits LNCaP cells to form tumors in vivo in an androgen—independent manner. Subcutaneous implantation of these LNCaP cells into 4 quadrants of SCID mice results in rapid tumor growth in intact and castrated mice over an eight week period. […] Mice placed on a high cholesterol diet 4 weeks prior to tumor implantation are started on ezetimibe and SCH 48461 @ 30 mg/kg of body weight 2 weeks after tumor implantation.
Subcutaneous implantations of LNCaP cells into 4 quadrants of SCID mice (2×10^6 cells in 150 ul Matrigel per injection site) results in rapid tumor growth in intact and castrated hosts on a high cholesterol diet over an 8 week period. Two weeks after tumor cell implantation, the animals are given ezetimibe in their diet at 10 mg/kg body weight.

[3] = system: benign prostatic hyperplasia; conditions: controlled double blind study; cited from earlier work
[4] = system: BIO 87.20 male Syrian hamster; assay: Ezetimibe treatment of BIO 87.20 male Syrian hamsters that develop spontaneous cystic prostatic hypertrophy and other tumors; assay type: in vivo
From the text: The BIO 87.20 male Syrian hamster is a well-known inbred line that develops, spontaneously, an age-dependent and genetic related cystic prostatic hypertrophy and is recognized in the art as an excellent model for human prostate disease. See, e.g., Homburger et al., 1970, Proc. Soc. Exptl. Biol. Med., 134:284-286; Homburger, 1972, Health Lab Sci., 9:103-111; Wang et al., 1976, Invest. Urol., 14:66-71. The BIO 87.20 strain of hamster develops multiple tumors after 12 months of age.
The stromal hyperplasia and changes in the epithelial cells are also observed upon microscopic examination. […] The BIO 87.20 and BIO 1.5 strains of male Syrian hamster are employed in the ezetimibe studies presented herein. […] Schaffner et al., Lipids 16:835-840 (1981). The defect in cholesterol synthesis and the development of cystic prostatic hypertrophy in the BIO 87.20 male hamster is related.
16 BIO 1.5 and 48 BIO 87.20 male Syrian hamsters are obtained from Bio Breeders, Inc. Boston, Mass. Among these animals, 8 BIO 1.5 and 24 BIO 87.20 hamsters are 6 months of age, while the remainder, consisting of […] and 24 BIO 87.20 hamsters, are 12 months of age. The animals are housed in individual cages. All animals are given water ad libitum and are housed under automatic regime of 12 hours artificial light and 12 hours darkness. Food consumption is be monitored to ensure equivalent intake in all animals. The drug, ezetimibe, is powdered and mixed into ground PURINA® hamster chow. Concentrations of ezetimibe, in the food, is adjusted according to quantity of food intake per hamster per day and expressed as average μg of ezetimibe per kg body weight per day.
The animals are divided into 8 experimental groups containing 8 animals each. The groups may be characterized as follows:
Control BIO 1.5 and control and treated BIO 87.20 male Syrian hamsters, both 6 and 12 months of age, are used as follows. In the treated group of BIO 87.20 male Syrian hamsters, ezetimibe is administered as a powder in the diet. Treatment with doses of ezetimibe of 100 and 1000 micrograms per kilogram body weight of the BIO 87.20 animals is continued for 6 months. […] After 6 months of treatment the animals are sacrificed and the prostate glands excised, weighed and preserved for histopathological examination.

[5] = system: tumor initiation and progression; conditions: long-term rat studies; cited from earlier work

## O=C1N(c2ccc(F)cc2)[C@H](c2ccc(O)cc2)C12CCC(O)(c1ccc(Cl)cc1)CC2 (single isomer, unassigned; (+)) [SCH 58053, (+)-7-(4-chlorophenyl)-2-(4-flourophenyl)-7-hydroxy-3R-(4-hydroxyphenyl)-2-azaspiro[3,5]nonan-1-one]
[1]
  serum cholesterol levels: do not generally affect serum cholesterol levels
  elevated serum cholesterol levels: do lower elevated serum cholesterol levels

## COc1ccc([C@@H]2[C@@H](CCCc3ccccc3)C(=O)N2c2ccc(OC)cc2)cc1 [SCH 48461]
[2]
  tumor growth and progression vs untreated controls: significant inhibition of tumor growth and progression
  tumor volumes: progression and growth of the implanted tumors vs untreated controls: significantly inhibits the progression and growth of the implanted tumors
[1]
  serum cholesterol levels: do not generally affect serum cholesterol levels
  elevated serum cholesterol levels: do lower elevated serum cholesterol levels

## CC[C@H](CC[C@@H](C)[C@H]1CC[C@H]2[C@@H]3CC=C4C[C@@H](O)CC[C@]4(C)[C@H]3CC[C@]12C)C(C)C [beta-sitosterol]
[3]
  effectiveness in the treatment of benign prostatic hyperplasia: effective

## O=C1[C@H](CC[C@H](O)c2ccc(F)cc2)[C@@H](c2ccc(O)cc2)N1c1ccc(F)cc1 [ezetimibe, 1-(4-fluorophenyl)-(3R)-[3-(4-fluorophenyl)-(3S)-hydroxypropyl]-(45)-(4-hydroxyphenyl)-2-azetidinone]
[2]
  tumor growth and progression vs untreated controls: marked inhibition of tumor growth and progression
  tumor volumes: progression and growth of the implanted tumors vs untreated controls: significantly inhibits the progression and growth of the implanted tumors
[1]
  serum cholesterol levels: do not generally affect serum cholesterol levels
  elevated serum cholesterol levels: do lower elevated serum cholesterol levels
[4]; 1000 μg/kg body weight
  effect of higher dose on inhibition and reversal of the prostate enlargement: greater effect on the inhibition and reversal of the prostate enlargement
[4]; 1000 μg/kg body weight, beginning at 6 months of age, 6 months
  inhibitory effect on size increase of the prostate gland, higher vs lower dose: greater inhibitory effect on size increase of the prostate gland
[4]; 1000 vs 100 μg/kg body weight, beginning at 12 months of age, 6 months
  level of effect on ventral prostate weights, higher vs lower dose: significantly greater at the higher dosage
[4]; as referred to Example II
  tumors at the end of the experiment vs BIO 87.20 control animals of the same age: no tumors
[4]; beginning at 6 months of age, after 6 months of treatment
  cystic prostatic hypertrophy on histopathological examination vs untreated controls: marked reduction in the cystic prostatic hypertrophy
[4]; beginning at 12 months of age, enlargement already present
  established prostatic enlargement (reversal): reverses the prostatic enlargement
[4]; oral 1000 μg/kg body weight, beginning at 12 months of age, 6 months
  miscellaneous tumors other than that of the prostate gland: very few tumors are observed
[4]; oral route
  development of cystic prostatic hypertrophy: inhibits the development of cystic prostatic hypertrophy
[4]; summary statement, dose not given
  other cholesterol-associated tumor formation: inhibits other cholesterol-associated tumor formation
[4]; treated BIO 87.20 compared with BIO 1.5 prostate sections
  histology of the prostates on histopathological examination: more normal histology
[4]; treatment beginning at 6 months of age, 6 months, 100 and 1000 μg/kg body weight in diet
  prostatic enlargement / prostate gland volume vs untreated control BIO 87.20: inhibits prostatic enlargement; also recorded: marked inhibitory effect on the prostate gland volume
[4]; treatment beginning at 12 months of age, 6 months, 100 and 1000 μg/kg body weight
  prostatic mass or volume / excised ventral prostate weights vs untreated BIO 87.20 controls: reduces the prostatic mass or volume; also recorded: markedly reduced

## candicidin
[5]
  tumor initiation and progression vs untreated controls: inhibit tumor initiation and progression
